# “And” between values parts separate entries of the source, which are not always exact repeats. Identical values can stand only once. Like-named read-outs stand apart in the source and are kept apart here.
# Tests used:
# [1] = tested on: MRL/MpJ-Fas^lPr autoimmune mice; assay: Blood hematocrit as index of systemic autoimmune disease; type: in vivo, mouse; details: for change in hematocrit: pre- vs posttreatment, any dose
# Text: (§1) This example describes methods used to measure the severity of systemic autoimmune disease, as described in Trune et al. (Hear. Res. 38:57-66, 1989). Briefly, baseline and posttreatment serum samples are taken for measurement of hematocrit, antinuclear antibodies, and serum immune complexes as indices of systemic autoimmune disease progression. […] For those mice still alive at the time of sacrifice, some spleens were weighed to assess splenomegaly, another index of systemic autoimmune disease progression.
# (§2) It may not be possible to perform an extensive statistical analysis on serum measures if there are high mortality rates, if the differential mortality rates between groups lead to large differences in sample sizes, and an inability to get sufficient blood from some mice. In this case, pretreatment-posttreatment statistical comparisons (paired t-tests) are conducted only for those mice that survive the treatment period.
# [2] = tested on: MRL/MpJ-Fas^lPr autoimmune mice; assay: Auditory brainstem response (ABR) audiometry after oral steroid treatment; type: in vivo, mouse; details: for % of ears that are same (unchanged) / % of ears that are worse / % of ears that are better: two months following treatment, dose not stated; for % of ears that are same (unchanged): combined ABR thresholds +/-15 dB; for % of ears that are worse: combined ABR thresholds higher by 20 dB or more; for % of ears that are better: combined ABR thresholds lower by 20 dB or more
# Text: The MRL/MpJ-Fas^lPr autoimmune mouse is an established model of autoimmune sensorineural hearing loss (Ruckenstein et al., Acta OtolaryngoL 113:160-5, 1993; Trune et al. Hear. Res. 105:57-64, 1997). These mice carry a Fas gene defect that prevents apoptosis of self-recognizing T lymphocytes, leading to T cell proliferation and polyclonal B cell activation (Watanabe-Fukunaga et al. Nature 356:314-7, 1992). Spontaneous systemic autoimmune disease develops in MRL/MpJ-Fas^lPr autoimmune mice, resulting in increased serum immune complexes, anti-DNA antibodies, lymphadenopathy, elevated auditory thresholds, lowered hematocrits due to anti-erythrocyte autoantibodies, splenomegaly, increased body mass and pathological changes in the stria vascularis (Id. and Ruckenstein et al. Otolaryngol. Head Neck Surg. 121:452-6, 1999; Trune et al. Hear. Res. 155:9-20, 2001).
# Mice (Jackson Laboratories, Bar Harbor, Me.) were obtained at two months of age. Onset of systemic autoimmune disease occurs at 3-4 months of age and cochlear thresholds rise shortly thereafter (Trune et al., Otolaryngol. Head Neck Surg. 117:504-8, 1997). Mice were tested with auditory brainstem response (ABR) audiometry (see Example 2) at 2-3 months of age to establish pretreatment baseline auditory thresholds.
# (§3) Animals were anesthetized (kcetamine+xylazine) and the individual ears of each mouse stimulated with a closed-tube sound delivery system sealed into the ear canal. The ABR to tone-burst stimuli at 4, 8, 16, and 32 kHz was recorded and thresholds obtained for each ear. Absolute thresholds and threshold changes over the treatment period for each ear were calculated to determine if treatments impact cochlear function. For each ear, pretreatment and posttreatment thresholds at the four frequencies were compared statistically to establish any change over the treatment period.
# (§4) The shifts for each frequency within an ear were added to derive its total change in threshold as described previously (Trune et al., Hear. Res. 137:160-6, 1999; Trune et al., Hear. Res. 137:167-73, 1999). If the ear's combined posttreatment thresholds was lower by 20 dB or more, the ear was considered to be improved (average of 5 dB per frequency). The ear is considered unchanged if the combined thresholds are +/−15 dB and worse if the combined thresholds were higher by 20 dB or more.
# [3] = tested on: MRL/MpJ-Fas^lPr autoimmune mice; assay: Serum immune complexes as index of systemic autoimmune disease; type: in vivo, mouse; details: for effect on serum immune complexes: pre- vs posttreatment
# Text: as §1, §2
# [4] = tested on: MRL/MpJ-Fas^lPr autoimmune mice; assay: Cochlear histology of the stria vascularis; type: in vivo, mouse; details: for stria vascularis appearance: after steroid treatment, qualitative
# Method: Following decalcification in EDTA, the ears were cryostat sectioned for qualitative morphologic evaluations of the stria vascularis. The procedure of Whitlon et al. (Brain Res. Protocols, 6:159-66, 2001) can be used to improve OCT compound infiltration and tissue preservation. The cochleas were cryostat sectioned for immunocytochemical analyses. Quantitative morphology was performed on glycol methacrylate (GMA) embedded tissue as follows. […] Following decalcification in EDTA, the ears were embedded in glycol methacrylate for light microscopic examination. Every fourth section (5 μm thickness) wass serially mounted on glass slides and stained for quantitative and qualitative analyses. Cochleas were scanned for pathological changes and treatment effects. Of particular interest is the stria vascularis, lateral wall, hair cells, spiral ganglion neurons, and all blood vessels in modiolar and sensory regions. The area occupied by stria vascularis, blood vessels, non-blood vessels, and intercellular edema was measured for statistical analysis. Alternatively, the following methods can be used to qualitatively determine stria vascularis and spiral ligament and integrity of endothelial cell tight junctions, intercellular edema. […] Thin sections are observed on a Philips CM100. Qualitative observations are made of the cochlear tissue areas above and any other regions determined in the immunohistochemistry section to be responsive to steroid therapy. Stria vascularis is examined for integrity of endothelial cell tight junctions, and intercellular edema, to determine the treatment effects on known changes that occur in autoimmune disease.
# [5] = tested on: MRL/MpJ-Fas^lPr autoimmune mice; assay: Spleen weight (splenomegaly); type: in vivo, mouse; details: at sacrifice; prednisolone 5 mg treatment; aldosterone dose not stated
# Text: as §1
# Increased spleen size also is a manifestation of autoimmune disease, increasing with progression of systemic T and B cell proliferation. The spleen is approximately 75-100 mg in normal mice.
# [6] = tested on: MRL/MpJ-Fas^lPr autoimmune mice; assay: Drug combination therapy: survival; type: in vivo, mouse; details: for % alive: 2 months
# [7] = tested on: MRL/MpJ-Fas^lPr autoimmune mice; assay: Anti-nuclear antibody (ANA) levels by immunofluorescence; type: in vivo, mouse; details: pre- vs posttreatment
# Text: as §1
# Antibodies against nuclear material are another manifestation of autoimmune disease. Anti-nuclear antibody (ANA) levels are determined by level of immunofluorescence (1+ to 4+) with normal as 1+as previously described (Trune et al., Hear. Res. 38:57-66, 1989).
# [8] = tested on: MRL/MpJ-Fas^lPr autoimmune mice; details: Trune et al., Laryngoscope 2000; cited from earlier work
# [9] = tested on: MRL/MpJ-Fas^lPr autoimmune mice; assay: Drug combination therapy: ABR ear outcome; type: in vivo, mouse
# Method: as §3, §4
# Hearing loss was monitored monthly using the method described in Example 2.
# [10] = tested on: MRL/MpJ-Fas^lPr autoimmune mice; details: mouse, in vivo
# Text: (§5) Serum samples were collected for baseline levels of hematocrit, serum immune complexes, and antinuclear antibodies, all hallmarks of systemic autoimmune disease. […] At the end of treatments, ABR audiometry and serum collection were repeated at 2, 3, and 4 months of treatment to determine steroid effects on cochlear function and systemic autoimmunity.
# (§6) Oral delivery in mice provides a constant source of steroid, parallels oral administration in humans, and avoids the trauma of daily injections.
# (§7) Mice receiving aldosterone were administered a daily oral dose of 3, 5, 15, or 30 μLg/kg/day of d-aldosterone (Sigma, St. Louis Mo.). Aldosterone drinking water was prepared by dissolving 50 μg of steroid in 50 μl of 100% ETOH, then diluting the required amount in the 500 ml of water in the drinking bottle to reach the final effective dose. The highest final ETOH concentration in a waterbottle was 0.018% (90 μl dose) and was considered negligible.
# (§8) Mice receiving fludrocortisone were administered a daily oral dose of 3 μg/kg per day or 10 μg/kg per day. Fludrocortisone drinking water was prepared by dissolving 50 μg of fludrocortisone, 50 μl of 100% ETOH, then diluting the required amount in the 500 ml of water in the drinking bottle to reach the final effective dose. The final ETOH concentration in a water bottle was considered negligible.
# (§9) The shift in thresholds between baseline and posttreatment times was analyzed for each ear with a paired t-test. […] A probability value less than 0.05 was considered significant in all tests. […] In addition, by summing the shifts at each frequency, any random fluctuations in thresholds at the different frequencies due to equipment or animal variation are mathematically removed.
# [11] = tested on: MRL/MpJ-Fas^lPr autoimmune mice; assay: Stria blood vessel size (quantitative morphology, plastic embedding); type: in vivo, mouse; details: Chi-squared of vessels above and below normal median
# Text: To increase histological detail in order to quantitatively measure steroid responsive hearing loss (stria blood vessel sizes), plastic embedding methods were used as described herein. Age-matched BALB/c controls also were processed to provide details of non-autoimmune stria. Camera lucida drawings were made of the stria, its blood vessels, and the edematous spaces. Digitized measurements were made of these various features.
# [12] = tested on: MRL/MpJ-Fas^lPr autoimmune mice; details: spironolactone study
# Method: (§10) The spironolactone treatment group was given daily oral doses (5 mg/kg per day) of spironolactone (Sigma, St. Louis, Mo.). Spironolactone drinking water was prepared by dissolving 15 mg of spironolactone in 0.6-0.8 ml of 100% ethyl alcohol (ETOH) and diluting it into a 500 ml drinking-water bottle. Mice drink 3-5 ml of water daily, so the effective dose was approximately 0.15 mg per day. The final ETOH concentration was approximately 0.1% and considered negligible. The dose of spironolactone administered (5 mg/kg per day) was equivalent to the dose used clinically for the treatment of primary hyperaldosteronism and was likely insufficient to completely block the mineralocorticoid receptor.
# [13] = tested on: MRL/MpJ-Fas^lPr autoimmune mice
# Method: as §10
# The spironolactone+aldosterone treatment group was given 15 μg/kg per day of aldosterone in addition to the 5 mg/kg/day of spironolactone. Aldosterone drinking water was prepared by dissolving 50 μg of aldosterone in 50 μl of 100% ETOH and diluting it in the same 500 ml drinking-water bottle as the spironolactone. The final effective dose of aldosterone was approximately 0.5 μg per day. The final ETOH concentration of aldosterone was less than 0.009%. […]
# ABR thresholds were recorded before and during treatment (2, 3, and 4 months) to measure the effect of steroids on hearing decline as described above in Example 2.
# Ears also were analyzed independently across all frequencies. […]
# [14] = tested on: MRL/MpJ-Fas^lPr autoimmune mice; assay: Survival and tolerance of steroid drinking water; details: for tolerance of steroid in the drinking water: dehydration, avoidance of drinking
# Text: as §5, §6, §7, §8, §9
# [15] = Aldosterone 10 μg/kg/day, 2 months of treatment
compound,measurement,setting,value
"C[C@]12CCC(=O)C=C1CC[C@@H]1[C@@H]2[C@@H](O)C[C@]2(C=O)[C@@H](C(=O)CO)CC[C@@H]12 [Aldosterone, d-aldosterone]",change in hematocrit,[1],did not cause any significant change
same,overall ABR threshold changes vs pretreatment baselines,[2]; two month treatment period,prevent significant overall threshold changes
same,% of ears that are same (unchanged),[2],27%
same,% of ears that are worse,[2],69%
same,% of ears that are better,[2],4%
same,thresholds / cochlear function relative to water controls,"[2]; two months of treatment, Chi-squared",significantly better thresholds than controls
same,posttreatment serum immune complex levels,"[3]; higher dose aldosterone, four surviving mice","53,000 μg/ml"
same,serum immune complex levels in individual mice,"[3]; higher dose aldosterone, two of the four surviving mice","157,000 μg/ml and 45,000 μg/ml"
same,effect on serum immune complexes,[3],did not show any significant depression
same,stria vascularis appearance,[4],restored the stria to almost normal appearance
same,stria appearance,[4]; aldosterone 15 and 30 μg treatment groups,virtually normal in appearance
same,stria epithelia appearance,[4]; lowest aldosterone dose,some edema and large vessels
same,average spleen weight,[5],399 mg
same,Alive at 2 months of Tx (mice),[6]; Aldosterone 10 μg/kg/day,7
same,% alive,[6]; Aldosterone 10 μg/kg/day,87.5%
same,impact on continuing elevation of ANA levels,[7],did not have a significant impact
same,reversing or stabilizing autoimmune related hearing loss,[8],just as effective as prednisolone
same,# Better (ears),[9]; [15],0
same,# Worse (ears),[9]; [15],13
same,# no change (ears),[9]; [15],1
same,(%) Worse (ears),[9]; [15],(93%)
same,(%) no change (ears),[9]; [15],7%
same,prevention of hearing loss / decrease of rate of hearing loss,"[9]; prednisolone alone at 1 mg/kg/day, aldosterone alone at 3 μg/kg/day",not prevented
same,tolerance of steroid in the drinking water,[10],no adverse affects
same,stria blood vessel size relative to normal BALB/c median (35.3 μm^2),[11],the same size as normal mice
CC(=O)S[C@@H]1CC2=CC(=O)CC[C@]2(C)[C@H]2CC[C@@]3(C)[C@@H](CC[C@@]34CCC(=O)O4)[C@H]12 [Spironolactone],"systemic immune disease (immune complexes, hematocrits, body weights)",[12],normal progression of systemic disease
same,hearing patterns compared to water controls,[13]; four months of treatment,no difference from controls
same,hearing thresholds compared to water controls,[13]; three months of treatment,no different from untreated mice
C[C@]12CCC(=O)C=C1CC[C@H]1[C@@H]3CC[C@](O)(C(=O)CO)[C@@]3(C)C[C@H](O)[C@@]12F [Fludrocortisone],% of ears that are same (unchanged),[2],55% and 54.5%
same,% of ears that are worse,[2],34%
same,% of ears that are better,[2],12% and 11.5%
same,tolerance of steroid in the drinking water,[14],similarly tolerate
prednisolone sodium phosphate,hematocrits,[1]; higher dose prednisolone,elevated hematocrits beyond the normal range
same,average hematocrits,[1]; lower prednisolone dose,in the normal range
same,change in hematocrit,[1],elevated hematocrits
same,serum immune complex levels after treatment,"[3]; higher prednisolone dose, dropped from 3,920 μg/ml",approximately 450 μg/ml
same,effect on serum immune complexes,[3],lowered serum immune complexes in a dose dependent manner
same,serum immune complexes after treatment,"[3]; prednisolone 5 mg dose, reduced from 4,570 μg/ml","1,092 μg/ml"
same,stria vascularis appearance,[4],"proper epithelium thickness, although dilated vessels still were seen"
same,tolerance of steroid in the drinking water,[14],no adverse affects
same,survival,[14]; end of two months of treatment,60-65%
same,average spleen weight,[5],45 mg
same,"systemic immune disease (immune complexes, hematocrits, body weights)",[12],all of the normal immune suppression effects
same,Alive at 2 months of Tx (mice),[6]; Prednisolone 3 mg/kg/day,3
same,% alive,[6]; Prednisolone 3 mg/kg/day,42.9%
same,impact on continuing elevation of ANA levels,[7],did not have a significant impact

# — US20060013858A1, “Fludrocortisone treatment for hearing loss” (priority 2002, published 2006)
